Laboratory results published in PubChem BioAssay AID1845216 (Molecular Pharmacology Branch, DTP, NCI, 2023).

System: SW 982 tumor spheroid viability
Assay: Anticancer human tumor SW 982 cell line growth inhibition;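 further: spheroids exposed to compound for 7 days before readout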
Details: spheroids with HUVEC and MSC; for IC50: curve of first compound; for viability, T/C: stronger effect = lower value
How it was run: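 Single agents and combinations were tested on spheroids built from tumor cells plus HUVEC and hMSC, at half-log dilutions starting at or near clinical Cmax, else 10 microM; final DMSO 0.25% (v/v).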

CC1COCCN1c1cc(-c2ccnn2C)c2ccnc(-c3ccn[nH]3)c2n1 (stereo not given) + COc1cc2c(cc1O)CCNC21CSC2c3c(OC(C)=O)c(C)c4c(c3C(COC1=O)N1C(O)C3Cc5cc(C)c(OC)c(O)c5C(C21)N3C)OCO4
IC50 (second compound 30 pM): < 0.0316 µM
IC50 (second compound 94.9 pM): < 0.0316 µM
IC50 (second compound 0.0003 µM): < 0.0316 µM
IC50 (second compound 0.000949 µM): < 0.0316 µM
IC50 (second compound 0.003 µM): < 0.0316 µM
viability, T/C (second compound 30 pM, first compound 0.0316 µM): 30.3%
viability, T/C (second compound 30 pM, first compound 0.1 µM): 21.2%
viability, T/C (second compound 30 pM, first compound 0.316 µM): 16.3%
viability, T/C (second compound 30 pM, first compound 1 µM): 14.8%
viability, T/C (second compound 30 pM, first compound 3.16 µM): 16.5%
viability, T/C (second compound 30 pM, first compound 10 µM): 19.5%
viability, T/C (second compound 94.9 pM, first compound 0.0316 µM): 28%
viability, T/C (second compound 94.9 pM, first compound 0.1 µM): 19.8%
viability, T/C (second compound 94.9 pM, first compound 0.316 µM): 14.6%
viability, T/C (second compound 94.9 pM, first compound 1 µM): 12.7%
viability, T/C (second compound 94.9 pM, first compound 3.16 µM): 16.6%
viability, T/C (second compound 94.9 pM, first compound 10 µM): 18.9%
viability, T/C (second compound 0.0003 µM, first compound 0.0316 µM): 18.7%
viability, T/C (second compound 0.0003 µM, first compound 0.1 µM): 16.3%
viability, T/C (second compound 0.0003 µM, first compound 0.316 µM): 12.6%
viability, T/C (second compound 0.0003 µM, first compound 1 µM): 10.9%
viability, T/C (second compound 0.0003 µM, first compound 3.16 µM): 14.7%
viability, T/C (second compound 0.0003 µM, first compound 10 µM): 14.6%
viability, T/C (second compound 0.000949 µM, first compound 0.0316 µM): 13.8%
viability, T/C (second compound 0.000949 µM, first compound 0.1 µM): 10.5%
viability, T/C (second compound 0.000949 µM, first compound 0.316 µM): 6.7%
viability, T/C (second compound 0.000949 µM, first compound 1 µM): 4.79%
viability, T/C (second compound 0.000949 µM, first compound 3.16 µM): 3.55%
viability, T/C (second compound 0.000949 µM, first compound 10 µM): 1.4%
viability, T/C (second compound 0.003 µM, first compound 0.0316 µM): 1.23%
viability, T/C (second compound 0.003 µM, first compound 0.1 µM): 1.25%
viability, T/C (second compound 0.003 µM, first compound 0.316 µM): 0.44%
viability, T/C (second compound 0.003 µM, first compound 1 µM): 0.7%
viability, T/C (second compound 0.003 µM, first compound 3.16 µM): 0.39%
viability, T/C (second compound 0.003 µM, first compound 10 µM): 0.98%

CC1COCCN1c1cc(-c2ccnn2C)c2ccnc(-c3ccn[nH]3)c2n1 (stereo not given) + Cn1nnc2c(C(N)=O)ncn2c1=O
IC50 (second compound 1 µM): < 0.0316 µM
IC50 (second compound 3.16 µM): < 0.0316 µM
IC50 (second compound 10 µM): < 0.0316 µM
IC50 (second compound 31.6 µM): < 0.0316 µM
IC50 (second compound 100 µM): < 0.0316 µM
viability, T/C (second compound 1 µM, first compound 0.0316 µM): 32.4%
viability, T/C (second compound 1 µM, first compound 0.1 µM): 20.4%
viability, T/C (second compound 1 µM, first compound 0.316 µM): 17.3%
viability, T/C (second compound 1 µM, first compound 1 µM): 15.4%
viability, T/C (second compound 1 µM, first compound 3.16 µM): 19.2%
viability, T/C (second compound 1 µM, first compound 10 µM): 23%
viability, T/C (second compound 3.16 µM, first compound 0.0316 µM): 26.9%
viability, T/C (second compound 3.16 µM, first compound 0.1 µM): 17%
viability, T/C (second compound 3.16 µM, first compound 0.316 µM): 15.8%
viability, T/C (second compound 3.16 µM, first compound 1 µM): 17%
viability, T/C (second compound 3.16 µM, first compound 3.16 µM): 19.7%
viability, T/C (second compound 3.16 µM, first compound 10 µM): 22.5%
viability, T/C (second compound 10 µM, first compound 0.0316 µM): 21.1%
viability, T/C (second compound 10 µM, first compound 0.1 µM): 16.6%
viability, T/C (second compound 10 µM, first compound 0.316 µM): 13%
viability, T/C (second compound 10 µM, first compound 1 µM): 13.3%
viability, T/C (second compound 10 µM, first compound 3.16 µM): 22.9%
viability, T/C (second compound 10 µM, first compound 10 µM): 20.3%
viability, T/C (second compound 31.6 µM, first compound 0.0316 µM): 20.6%
viability, T/C (second compound 31.6 µM, first compound 0.1 µM): 15.8%
viability, T/C (second compound 31.6 µM, first compound 0.316 µM): 13.1%
viability, T/C (second compound 31.6 µM, first compound 1 µM): 11.8%
viability, T/C (second compound 31.6 µM, first compound 3.16 µM): 12.5%
viability, T/C (second compound 31.6 µM, first compound 10 µM): 18.2%
viability, T/C (second compound 100 µM, first compound 0.0316 µM): 15%
viability, T/C (second compound 100 µM, first compound 0.1 µM): 12.8%
viability, T/C (second compound 100 µM, first compound 0.316 µM): 10.3%
viability, T/C (second compound 100 µM, first compound 1 µM): 9.31%
viability, T/C (second compound 100 µM, first compound 3.16 µM): 11.1%
viability, T/C (second compound 100 µM, first compound 10 µM): 14.6%
